Patent US11072616B2, “Cyclic peptides targeting alpha-4-beta-7 integrin” (Zealand Pharma A/S, priority 2015, dated 2021)

Target: T1, integrin α4β7 (Homo sapiens, UniProt P13612+P26010)
T1 sequence (P13612 34-977 limits assumed): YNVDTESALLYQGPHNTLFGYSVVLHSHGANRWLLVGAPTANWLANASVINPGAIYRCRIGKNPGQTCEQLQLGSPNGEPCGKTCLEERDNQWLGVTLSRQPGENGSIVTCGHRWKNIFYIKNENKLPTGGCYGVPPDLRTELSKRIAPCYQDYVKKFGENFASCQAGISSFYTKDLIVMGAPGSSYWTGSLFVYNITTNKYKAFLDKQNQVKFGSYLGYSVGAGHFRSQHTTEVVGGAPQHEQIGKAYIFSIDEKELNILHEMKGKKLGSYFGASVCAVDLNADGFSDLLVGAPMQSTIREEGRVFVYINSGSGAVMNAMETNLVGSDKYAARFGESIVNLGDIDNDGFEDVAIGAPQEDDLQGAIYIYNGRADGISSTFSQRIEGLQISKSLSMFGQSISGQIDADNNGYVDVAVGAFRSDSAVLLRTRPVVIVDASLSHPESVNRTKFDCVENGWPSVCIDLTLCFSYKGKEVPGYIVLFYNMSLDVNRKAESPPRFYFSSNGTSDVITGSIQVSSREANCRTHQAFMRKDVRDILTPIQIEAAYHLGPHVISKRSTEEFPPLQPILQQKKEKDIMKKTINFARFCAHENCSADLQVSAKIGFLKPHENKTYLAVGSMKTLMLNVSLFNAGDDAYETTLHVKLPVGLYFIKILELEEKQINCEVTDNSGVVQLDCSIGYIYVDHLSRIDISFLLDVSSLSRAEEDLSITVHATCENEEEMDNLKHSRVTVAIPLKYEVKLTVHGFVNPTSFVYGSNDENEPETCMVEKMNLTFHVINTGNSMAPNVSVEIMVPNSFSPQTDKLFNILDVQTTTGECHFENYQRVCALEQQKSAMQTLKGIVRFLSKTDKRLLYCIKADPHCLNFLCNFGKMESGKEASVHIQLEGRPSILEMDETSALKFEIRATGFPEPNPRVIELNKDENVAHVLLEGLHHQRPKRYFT
T1 sequence (P26010 20-723 limits assumed): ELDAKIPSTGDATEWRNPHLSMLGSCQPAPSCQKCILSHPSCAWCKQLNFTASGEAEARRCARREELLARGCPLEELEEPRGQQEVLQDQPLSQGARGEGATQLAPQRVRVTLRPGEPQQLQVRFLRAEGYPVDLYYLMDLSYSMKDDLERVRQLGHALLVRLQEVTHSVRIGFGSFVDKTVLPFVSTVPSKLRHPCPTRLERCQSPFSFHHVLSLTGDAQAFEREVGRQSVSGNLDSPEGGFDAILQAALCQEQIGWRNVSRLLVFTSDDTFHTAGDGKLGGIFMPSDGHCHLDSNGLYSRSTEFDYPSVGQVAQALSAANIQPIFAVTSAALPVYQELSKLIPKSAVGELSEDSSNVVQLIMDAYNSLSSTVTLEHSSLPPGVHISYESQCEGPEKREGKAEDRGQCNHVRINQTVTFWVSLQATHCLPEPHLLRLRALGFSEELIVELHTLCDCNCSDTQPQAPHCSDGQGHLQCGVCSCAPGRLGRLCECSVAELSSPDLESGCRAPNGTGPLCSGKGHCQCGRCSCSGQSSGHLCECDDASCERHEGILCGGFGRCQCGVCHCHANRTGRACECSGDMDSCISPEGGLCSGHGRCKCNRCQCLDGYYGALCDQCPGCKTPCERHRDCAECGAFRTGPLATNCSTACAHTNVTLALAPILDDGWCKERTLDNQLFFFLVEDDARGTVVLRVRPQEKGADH
Experiment: Integrin α4β7—MAdCAM-1 competition assay (ELISA)
Format: binding
Settings: ratio a4b1 ELISA IC50 / a4b7 ELISA IC50
Procedure: Integrin α4β7—MAdCAM-1 Competition Assay
The plate was incubated at 4° C. overnight. […] The plate was then incubated for 1 hour at room temperature. The plate was washed three times with wash buffer (50 mM Tris, 100 mM NaCl, 1 mM MnCl2, 0.05% Tween). To each well, 50 μl of compound diluted in assay buffer was added by transfer from a compound serial dilution plate. […] The plate was incubated at room temperature with shaking for 2 hours to reach binding equilibrium. Then the plate was washed three times in wash buffer and 100 μl anti-human IgG Fc specific-horseradish peroxidase (HRP) (Abcam, Ab97225) diluted at 1:2000 in assay buffer was added to each well. The plate was incubated at room temperature for 1 hour under agitation. The plates were then washed three times and 100 μl of 1,3′,5,5′-tetramethylbenxidie (TMB) was then added to each well.

| Compound | Selectivity ELISA |
| --- | --- |
| CC(C)C[C@@H]1NC(=O)CNC(=O)[C@H](Cc2ccc(CN)cc2)NC(=O)[C@@H]2CCCN2[C@H](C(=O)NC(C)(C)C)[C@H](C)NC(=O)[C@H]([C@@H](C)O)NC(=O)[C@H](CC(=O)O)NC1=O [Compound 165] | 22.8 |
| CC(C)C[C@@H]1NC(=O)[C@H]2C[C@H](O)CN2C(=O)[C@H](Cc2cscn2)NC(=O)[C@@H]2CCCN2[C@H](C(=O)NC(C)(C)C)[C@H](C)NC(=O)[C@H]([C@@H](C)O)NC(=O)[C@H](CC(=O)O)NC1=O [Compound 151] | 4.1 |
| CC(C)C[C@@H]1NC(=O)[C@@H](CCCCN)NC(=O)[C@H](Cc2cccc3ccccc23)NC(=O)[C@@H]2CCCN2[C@H](C(=O)NC(C)(C)C)[C@H](C)NC(=O)[C@H]([C@@H](C)O)NC(=O)[C@H](CC(=O)O)NC1=O [Compound 120] | 19.1 |
| CC(C)C[C@@H]1NC(=O)[C@H]2CCCCN2C(=O)[C@H](Cc2cccc3ccccc23)NC(=O)[C@@H]2CCCN2[C@H](C(=O)NC(C)(C)C)[C@H](C)NC(=O)[C@H]([C@@H](C)O)NC(=O)[C@H](CC(=O)O)NC1=O [Compound 143] | 2.1 |
| CC(C)C[C@@H]1NC(=O)[C@H](Cc2ccc(O)cc2)NC(=O)[C@@H]2CCCN2[C@H](C(=O)NC(C)(C)C)[C@H](C)NC(=O)[C@H](C(C)(C)S)NC(=O)[C@H](CC(=O)O)NC1=O [Compound 55] | 1.1 |
| CC(C)C[C@@H]1NC(=O)c2cc(cc(-c3ccncc3)c2)CNC(=O)[C@@H]2CCCN2[C@H](C(=O)NC(C)(C)C)[C@H](C)NC(=O)[C@H]([C@@H](C)O)NC(=O)[C@H](CC(=O)O)NC1=O [Compound 362] | 5.6 |
| C[C@@H]1NC(=O)[C@H]([C@@H](C)O)NC(=O)[C@H](CC(=O)O)NC(=O)[C@H](CC(C)(C)C)NC(=O)[C@H]2CCCCN2C(=O)[C@H](Cc2ccc(O)cc2)NC(=O)[C@@H]2CCCN2[C@@H]1C(=O)NC(C)(C)C [Compound 150] | 8.2 |
| CC(C)C[C@@H]1NC(=O)[C@H]2CCCCN2C(=O)[C@H](Cc2cscn2)NC(=O)[C@@H]2CCCN2[C@H](C(=O)NC(C)(C)C)[C@H](C)NC(=O)[C@H]([C@@H](C)O)NC(=O)[C@H](CC(=O)O)NC1=O [Compound 131] | 3.1 |
| CC(C)C[C@@H]1NC(=O)[C@H](C2CCCCC2)NC(=O)[C@@H]2CCCN2[C@H](C(=O)NC(C)(C)C)[C@H](C)NC(=O)[C@H]([C@@H](C)O)NC(=O)[C@H](CC(=O)O)NC1=O [Compound 91] | 14.5 |
| CC(C)C[C@@H]1NC(=O)CN(C)C(=O)[C@H](Cc2ccc(I)cc2)NC(=O)[C@@H]2CCCN2[C@H](C(=O)NC(C)(C)C)[C@H](C)NC(=O)[C@H]([C@@H](C)O)NC(=O)[C@H](CC(=O)O)NC1=O [Compound 107] | 16.0 |
| CC(C)C[C@@H]1NC(=O)CN(C)C(=O)[C@H](Cc2ccc(-c3ccccc3)cc2)NC(=O)[C@@H]2CCCN2[C@H](C(=O)NC(C)(C)C)[C@H](C)NC(=O)[C@H]([C@@H](C)O)NC(=O)[C@H](CC(=O)O)NC1=O [Compound 116] | 8.4 |
| CC(C)C[C@@H]1NC(=O)CN(C)C(=O)[C@H](Cc2cccc(I)c2)NC(=O)[C@@H]2CCCN2[C@H](C(=O)NC(C)(C)C)[C@H](C)NC(=O)[C@H]([C@@H](C)O)NC(=O)[C@H](CC(=O)O)NC1=O [Compound 106] | 18.7 |
| CC(C)C[C@@H]1NC(=O)[C@@H](CCCCN)NC(=O)[C@H](Cc2ccc(O)cc2)NC(=O)[C@@H]2CCCN2[C@H](C(=O)NC(C)(C)C)[C@H](C)NC(=O)[C@H]([C@@H](C)O)N(C)C(=O)[C@H](CC(=O)O)NC1=O [Compound 121] | 11.4 |
| COc1cccc(Cl)c1-c1ccc(C[C@@H]2NC(=O)[C@@H]3CCCN3[C@H](C(=O)NC(C)(C)C)[C@H](C)NC(=O)[C@H]([C@@H](C)O)NC(=O)[C@H](CC(=O)O)NC(=O)[C@H](CC(C)C)NC(=O)C[C@H](CCCCN)NC2=O)cc1 [Compound 269] | 31.6 |
| CC(C)C[C@@H]1NC(=O)[C@H]2C[C@H](O)CN2C(=O)[C@H](Cc2ccc(CN)cc2)NC(=O)[C@@H]2CCCN2[C@H](C(=O)NC(C)(C)C)[C@H](C)NC(=O)[C@H]([C@@H](C)O)NC(=O)[C@H](CC(=O)O)NC1=O [Compound 152] | 13.2 |
| CC(C)C[C@@H]1NC(=O)[C@@H]2C[C@@H](OCc3ccccc3)CN2C(=O)[C@@H]2CCCN2[C@H](C(=O)NC(C)(C)C)[C@H](C)NC(=O)[C@H]([C@@H](C)O)NC(=O)[C@H](CC(=O)O)NC1=O [Compound 57] | 2.5 |
| CC(C)C[C@@H]1NC(=O)c2ccc(-c3ccccc3N3CCNCC3)c(c2)CNC(=O)[C@@H]2CCCN2[C@H](C(=O)NC(C)(C)C)[C@H](C)NC(=O)[C@H]([C@@H](C)O)NC(=O)[C@H](CC(=O)O)NC1=O [Compound 348] | 1.5 |
| CC(C)C[C@@H]1NC(=O)[C@H](CCc2ccccc2)NC(=O)[C@@H]2CCCN2[C@H](C(=O)NC(C)(C)C)[C@H](C)NC(=O)[C@H]([C@@H](C)O)NC(=O)[C@H](CC(=O)O)NC1=O [Compound 6] | 1.9 |
| CC(C)C[C@@H]1NC(=O)c2ccc(-c3ccncc3)c(c2)CNC(=O)[C@H](Cc2ccc(O)cc2)NC(=O)[C@@H]2CCCN2[C@H](C(=O)NC(C)(C)C)[C@H](C)NC(=O)[C@H]([C@@H](C)O)NC(=O)[C@H](CC(=O)O)NC1=O [Compound 337] | 2.9 |
| CC(C)C[C@@H]1NC(=O)c2ccc(-c3cccc(CN)c3)c(c2)CNC(=O)[C@H](Cc2ccc(O)cc2)NC(=O)[C@@H]2CCCN2[C@H](C(=O)NC(C)(C)C)[C@H](C)NC(=O)[C@H]([C@@H](C)O)NC(=O)[C@H](CC(=O)O)NC1=O [Compound 339] | 5.8 |
| C[C@@H]1NC(=O)[C@H]([C@@H](C)O)NC(=O)[C@H](CC(=O)O)NC(=O)[C@H](CC(C)(C)C)NC(=O)c2ccc(-c3ccnc4ccccc34)c(c2)CNC(=O)[C@@H]2CCCN2[C@@H]1C(=O)NC(C)(C)C [Compound 355] | 1.4 |
| CC(C)C[C@@H]1NC(=O)C[C@H](CCCCN)NC(=O)C2(Cc3ccccc3C2)NC(=O)[C@@H]2CCCN2[C@H](C(=O)NC(C)(C)C)[C@H](C)NC(=O)[C@H]([C@@H](C)O)NC(=O)[C@H](CC(=O)O)NC1=O [Compound 288] | 12.2 |
| CC(C)C[C@@H]1NC(=O)[C@H](Cc2ccccc2)NC(=O)[C@@H]2C[C@@H](F)CN2[C@H](C(=O)NC(C)(C)C)[C@H](C)NC(=O)[C@H]([C@@H](C)O)NC(=O)[C@H](CC(=O)O)NC1=O [Compound 45] | 3.2 |
| CO[C@H](C)[C@@H]1NC(=O)[C@H](CC(=O)O)NC(=O)[C@H](CC(C)C)NC(=O)[C@H](Cc2ccccc2)NC(=O)[C@@H]2CCCN2[C@H](C(=O)NC(C)(C)C)[C@H](C)NC1=O [Compound 40] | 1.9 |
| CC(C)C[C@@H]1NC(=O)[C@H]2CCCCN2C(=O)[C@H](Cc2ccccc2I)NC(=O)[C@@H]2CCCN2[C@H](C(=O)NC(C)(C)C)[C@H](C)NC(=O)[C@H]([C@@H](C)O)NC(=O)[C@H](CC(=O)O)NC1=O [Compound 133] | 5.3 |
| CC[C@H](C)[C@@H]1NC(=O)[C@H](CC(=O)O)NC(=O)[C@H](CC(C)C)NC(=O)C[C@H](CCCCN)NC(=O)[C@H](Cc2ccc(CN)cc2)NC(=O)[C@@H]2CCCN2[C@H](C(=O)NC(C)(C)C)[C@H](C)NC1=O [Compound 215] | 12.4 |
